Columns and labels:
Assay type in all cases: cell-based, human
HLA-E = HLA-E surface stabilization assay with RMA-S/HLA-E cells; details: peptide 3-300 µM (Fig. 3: 30 µM) in OptiMEM, 16 h, 37 °C, anti-HLA-E 3D12, flow cytometry, n = 4 replicate experiments
Description: To probe top-predicted proteome-derived peptides (Tables 2 and 3) for HLA-E binding, we assessed their ability to stabilize surface-expressed HLA-E on RMA-S/HLA-E cells, a TAP-deficient mouse cell line engineered to express HLA-E and human β2M (Fig. 3 and Supplemental Fig. 8)[47].
Fig. 3 Peptide stabilization of HLA-E surface expression. Assessment of peptide-HLA-E binding via HLA-E surface stabilization assay with RMA-S/HLA-E cells incubated with 30 μM peptide. HLA-E expression is detected with an anti-HLA-E antibody. Measurements from n = 4 replicate experiments are shown, with solid black lines indicating mean values. […] Source data are provided as a Source Data file.
RMA-S/HLA-E cells were incubated with serial dilutions of peptides (3–300 µM, Genscript) in OptiMEM (ThermoFisher) for 16 h at 37 °C. Cells were washed with PBS, stained for HLA-E (Clone 3D12, Biolegend, 1:200 dilution) for 15 min at room temperature and analyzed by flow cytometry (analysis in FlowJo version 10). Peptide UBAC2_275-279 was ordered as a 5mer peptide (WNRLF) given the similarity with other WN peptides and hypothesis of a truncated peptide binding in the HLA-E groove. […] Measurements from replicate experiments are plotted in Fig. 3 and Supplemental Fig. 8.

NKG2A+/NKG2C- NK cells = experiment: NK cell activation assay with peptide-pulsed K562/HLA-E cells, NKG2A+/NKG2C- NK cells; details: K562/HLA-E target cells, 300 µM peptide ([…] µM BFAR263-271), E:T 2:1, 6 h; degranulation (CD107a), IFN-γ, TNF, CCL3; flow cytometry
Description: (§1) We hypothesized that our predicted proteome-derived peptides could affect NK cell activation through interactions with CD94/NKG2A and CD94/NKG2C. To investigate, we performed cell-based activation assays on primary NK cells (Fig. 4A). NK cells were co-incubated with peptide-pulsed HLA-E-expressing K562 cells, as described previously. The parental K562 human myelogenous leukemia cell line is a typical target to measure NK cell cytotoxicity and activation, allowing for assessment of both NKG2A-mediated inhibition and NKG2C-mediated activation. […] NKG2A^-/NKG2C^- NK cells served as internal control as these should be unaffected by peptide-HLA-E complexes (Supplemental Fig. 12).
(§2) Fig. 4 NK cell stimulation assays. Assessment of effects of peptides on NK cell activity through incubation of NK cells, peptides, and (A) K562/HLA-E or (B) RMA-S/HLA-E target cells. […] Replicates for individual peptides are from different donors, with solid black lines indicating mean values. […] Representative gating for NKG2A^+/NKG2C^- and NKG2A^-/NKG2C^+ NK cells is shown in Supplemental Fig. 14. Source data are provided as a Source Data file.
(§3) All analyses of human data were carried out in compliance with the relevant ethical regulations. Healthy blood donors gave informed consent at DRK Blutspendedienst Nord-Ost, Dresden, Germany, and buffy coats were obtained as approved by Charité ethics committee (EA4/059/17). PBMCs were isolated from human CMV-seropositive buffy coats by density centrifugation over Ficoll Paque Plus (GE Healthcare) and screened for the presence of NKG2C^+ NK cell expansions by flow cytometry to have sufficient frequencies of single-positive cells for parallel assessment of activation and inhibition via HLA-E[47]. Total NK cells from donors with NKG2C^+ expansions (>10% NKG2A^-/NKG2C^+ NK cells) were enriched with CD56 microbeads (Miltenyi Biotec) and cryopreserved in FBS with 10% v/v DMSO. After thawing, NK cells were washed with complete medium, stained with antibodies and Fixable Viability Dye eFluor 780 (Thermo Fisher) for 15 min at 4 °C in PBS, sorted as viable CD56^+ CD3^− cells, and rested in complete media overnight. […] Brefeldin A and Monensin (BD Biosciences) were added after a 1 h culture period. After an additional 5 h, the stimulation was stopped by centrifugation at 4 °C. Cells underwent surface staining, followed by fixation and intracellular staining using Inside Stain Kit (Miltenyi Biotec). Samples were analyzed by flow cytometry on an LSR Fortessa (BD Biosciences). Inhibition of NKG2A^+ NK cells and activation of NKG2C^+ NK cells was assessed by gating on the respective single-positive populations (Supplemental Fig. 14). Antibodies are listed in Supplemental Table 1: anti-human CD56 PE/Dazzle 594 (1:200 dilution), CD3 APC-eFluor 780 (1:50 dilution), anti-human CD159a (NKG2A) Biotin REAfinity (1:50 dilution), anti-human CD159c (NKG2C) PE REAfinity (1:100 dilution), anti-human CD107a (LAMP-1) Alexa Fluor 488 (1:400 dilution), anti-human IFN-γ PE-Vio 770 REAfinity (1:50 dilution), anti-human TNF-α Brilliant Violet 605 (1:50 dilution), anti-human CCL3 (MIP-1α) REAfinity (1:25 dilution).

NKG2A-/NKG2C+ NK cells = experiment: NK cell activation assay with peptide-pulsed K562/HLA-E cells, NKG2A-/NKG2C+ NK cells; details: K562/HLA-E target cells, 300 µM peptide ([…] µM BFAR263-271), E:T 2:1, 6 h; degranulation (CD107a), IFN-γ, TNF, CCL3; flow cytometry
Description: as §1, §2, §3

NKG2A-/NKG2C- NK cells = experiment: NK cell activation assay with peptide-pulsed K562/HLA-E cells, NKG2A-/NKG2C- internal control; details: K562/HLA-E target cells, 300 µM peptide, flow cytometry
Description: We hypothesized that our predicted proteome-derived peptides could affect NK cell activation through interactions with CD94/NKG2A and CD94/NKG2C. To investigate, we performed cell-based activation assays on primary NK cells (Fig. 4A). NK cells were co-incubated with peptide-pulsed HLA-E-expressing K562 cells, as described previously. The parental K562 human myelogenous leukemia cell line is a typical target to measure NK cell cytotoxicity and activation, allowing for assessment of both NKG2A-mediated inhibition and NKG2C-mediated activation. A side-by-side comparison of the HLA-E expression levels of K562/HLA-E and RMA-S/HLA-E cell lines is shown in Supplemental Fig. 11. All peptides which bound and stabilized HLA-E in the cell-based stability experiment (Fig. 3) were analyzed for their effects on NKG2A^+/NKG2C^- or NKG2A^-/NKG2C^+ NK cell activity, as measured by their ability to induce NK cell degranulation as well as IFN-γ, TNF and CCL3 production, in comparison to class I MHC-derived positive control peptides […] and […], and negative control peptide […] […]
All analyses of human data were carried out in compliance with the relevant ethical regulations. […] Samples were analyzed by flow cytometry on an LSR Fortessa (BD Biosciences). Inhibition of NKG2A^+ NK cells and activation of NKG2C^+ NK cells was assessed by gating on the respective single-positive populations (Supplemental Fig. 14). […]

Sequence: SAPLKTRFL [UL120_71-79, AD169, divergent UL120 peptide of CMV strain AD169]
- stabilization of HLA-E surface expression (HLA-E): weaker but detectable stabilization
- inhibitory effects on NKG2A+ cells (NKG2A+/NKG2C- NK cells): negatively affect activation of all subsets
- activating effects on NKG2C+ cells (NKG2A-/NKG2C+ NK cells): negatively affect activation of all subsets
- effect on activation of internal NKG2A-/NKG2C- control NK cells (NKG2A-/NKG2C- NK cells): negatively affect activation of all subsets

— article PMC10412585 (Nature Communications, 2023)
